Assay results from US8394767B2, “Methods of treating cancer using the calcitonin-gene related peptide (“CGRP”) receptor antagonist CGRP8-37” (University of Rochester, priority 2008, dated 2013).
Values belong to the compound of their own block, whether it stands above or below them. No end group written: not given here.

Tests used:
[1] = tested on: rodent receptors over human receptors; conditions: cited from earlier work
anti-CGRP antibody JH84 = test: Fluorescent competition assay with FL-CGRP tracer on immobilized antibody; format: binding; conditions: JH84 bound to 96-well plate, 100 pM FL-CGRP as tracer
Procedure: FIG. 11 is a graph illustrating that FL-CGRP can be used for a competition assay to determine CGRP concentrations. Affinity-purified JH84 antibody (100 ng/well) was linked to wells in a 96-well plate, and incubated with 100 pM FL-CGRP and increasing concentrations of unlabeled CGRP. Unbound peptide was washed from well, and fluorescence detected in a Perkin Elmer plate reader.
FL-CGRP was then used to develop a fluorescent competition assay. Affinity-purified anti-CGRP antibody JH84 was bound to the wells of a 96-well plate and […] FL-CGRP was incubated as tracer with either unlabeled CGRP, the homologous neuropeptide adrenomedullin (AM), or the CGRP antagonist CGRP(8-37). […] Thus, the antagonist could not totally compete with FL-CGRP for binding to the antibodies.

[2] = tested on: MDA-MB-231BR breast cancer cells; test: MDA-MB-231BR breast cancer cell growth assay (CyQuant Direct Proliferation Assay); format: cell-based, human; conditions: normoxic conditions, after 4 days in culture
Procedure: (§1) FIGS. 4A-B are graphs illustrating that CGRP is a potent stimulator of MDA-MB231BR breast cancer cell growth. MDA-MB231BR cells were seeded in 96-well plates, and grown for the indicated time in either normoxic (4A) or hypoxic (4B) conditions. Media was replaced every 24 hrs with fresh peptide-containing media. On each day, cell number was determined using the CyQuant Direct Proliferation Assay (Invitrogen).
A similar role for CGRP in the stimulation of breast cancer cell growth was observed using the MDA-MB-231BR breast cancer cell line. […] 81:39-48 (2007); Oxmann et al., “Endoglin Expression in Metastatic Breast Cancer Cells Enhances Their Invasive Phenotype,” Oncogene 27:3567-3575 (2008), each of which is herbey incorporated by reference in its entirety). In this assay, CGRP induced the MDA-MB-231BR breast cancer cells 6-fold over control after 4 days in culture under normoxic conditions (FIGS. 4A-B).

FL-CGRP = biological target: T1, FL-CGRP (Rattus norvegicus, UniProt P01256); test: Immunoprecipitation of FL-CGRP by anti-CGRP antibodies; format: binding; conditions: saturating unlabeled CGRP
T1 sequence (P01256 83-119 limits assumed): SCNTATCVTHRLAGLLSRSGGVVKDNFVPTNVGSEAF
Excerpt: FIGS. 10A-B illustrate the immunoprecipitation of FL-CGRP using anti-CGRP antibodies JH84 and MU33. FIG. 10B schematically illustrates the binding sites of these antibodies.
To be useful for development of non-radioactive competition assays, which will be useful for quantifying CGRP in tissues and cells, the FL-label at lysine^24 cannot inhibit anti-CGRP antibody binding. […] The binding sites for JH84 and MU33 on CGRP are illustrated schematically in FIG. 10B.

CNS1 glioma cells [3] = test: CNS1 glioma tumor cell proliferation assay (CyQuant Direct Proliferation Assay); format: cell-based, rat; conditions: for stimulation of glioma growth over control: hypoxic conditions
Procedure: as §1, with “3A-B” for “4A-B”, “CNS1 glioma” for “MDA-MB231BR breast cancer”, “CNS1” for “MDA-MB231BR”, “(3A)” for “(4A)”, “[…]” for “(4B)”
The rat glioma cell line CNS1 was used in a tumor cell proliferation assay. Both AM and CGRP were tested for their ability to stimulate glioma growth. […] More striking was the effect under hypoxic conditions, where CGRP stimulated glioma growth 72-fold over control after 4 days in culture and 10-fold after 5 days in culture (FIG. 3B).

[4] = tested on: CGRP receptors (CLR-cherry and RAMP1); test: FL-CGRP binding to COS1 cells transfected with CLR-cherry and RAMP1 (fluorescence microscopy)
Procedure: FIG. 12 is a panel of microscopy images illustrating that FL-CGRP specifically binds to cells expressing CLR and RAMP1. COS1 cells were transfected with CLR-cherry and RAMP1. 30 nM FL-CGRP was incubated with transfected cells for 30 minutes, and cells were washed 2× with PBS and visualized by phase-contrast microscopy (left panel), and fluorescent microscopy to identify cells expressing the CLR-cherry fusion protein (center panel) and cells that bound FL-CGRP (right panel).
COS1 cells were transfected with a fusion protein containing CLR-fused at its carboxyl terminus to the fluorescent protein cherry. CLR-cherry and RAMP1 were co-transfected into COS1 cells, and 48 hours post-transfection cells were incubated with FL-CGRP, and imaged using phase contrast microscopy (FIG. 12, left panel) as well as fluorescence microscopy for cherry (580 nm) (FIG. 12, center panel) and FL-CGRP (488 nm) (FIG. 12, right panel).

CGRP receptor [5] = biological target: T2, CGRP receptor (Mus musculus, UniProt O35427); test: CGRP receptor signaling (cAMP) in NIH3T3 cells expressing L2/EGFP; format: cell-based; conditions: L2/EGFP expressed in NIH3T3 cells, which endogenously express CGRP receptors
T2 construct: NIH3T3 cells, which endogenously express CGRP receptors; endogenous in cells; host or cells: NIH3T3
T2 sequence (O35427 whole entry): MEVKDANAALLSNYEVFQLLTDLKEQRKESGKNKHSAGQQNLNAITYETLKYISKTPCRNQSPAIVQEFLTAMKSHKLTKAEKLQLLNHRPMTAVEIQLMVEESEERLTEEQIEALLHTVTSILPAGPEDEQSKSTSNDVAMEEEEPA
Excerpt: (§2) FIG. 7A is a schematic illustration showing that the second intracellular loop of CLR was cloned as a fusion protein with enhanced green fluorescent protein (EGFP). […] The immunoprecipitate was separated by SDS-PAGE and probed with an antibody directed against RCP. RCP co-immunoprecipitated with the L2/EGFP fusion protein (lanes 5, 6) indicating an interaction between RCP and the second intracellular loop of CLR.
(§3) A fusion protein was constructed containing the second intracellular loop (“L2” or elsewhere designated “cpd2”) of CLR and the enhanced green fluorescent protein (L2/EGFP) (FIG. 7A). RCP co-immunoprecipitated with the L2/EGFP fusion protein, indicating a direct interaction between the two proteins (FIG. 7B). […] This confirmed the belief that over-expression of L2/EGFP pulls most of the available RCP away from the CGRP receptor complex, and that the CLR/RAMP1 complex is unable to signal. Thus, the site of interaction between the second intracellular loop of CLR and RCP represents a novel control site for signaling at CLR, and represents a candidate for development of anti-proliferative drugs to combat tumor growth.

[6] = tested on: breast cancer lines (human MDA-MB-231 and MDA-MB-231 BR, mouse 4T1 and TG1); test: Growth of breast cancer lines constitutively expressing L2/EGFP (FACS-purified); format: cell-based; conditions: constitutive promoter
Excerpt: To determine if the dominant-negative L2/EGFP fusion protein could inhibit CLR function in breast cancer cells, four breast cancer lines (human MDA-MB-231 and MDA-MB-231 BR lines and mouse 4T1 and TG1 lines) were transfected with L2/EGFP or GFP alone. MDA-MB231 and MDA-MB-231BR cells that constitutively express GFP were generated as previously described (Evans et al., “CGRP-RCP, a Novel Protein Required for Signal Transduction at Calcitonin Gene-Related Peptide and Adrenomedullin Receptors,” J Biol Chem 275(40):31438-43 (2000); Prado et al., “The Role of the CGRP-Receptor Component Protein (RCP) in Adrenomedullin Receptor Signal Transduction,” Peptides 22(11):1773-81 (2001); and Rosenblatt et al., “Endoproteolysis at Tetrabasic Amino Acid Sites in Procalcitonin Gene-Related Peptide by Pituitary Cell Lines” Peptides 18(4):567-76 (1997), which are hereby incorporated by reference in their entirety). However, when a constitutive promoter was used to express L2/EGFP in these tumor cells, pure fluorescent colonies could not be isolated because, it is believed, the constitutive expression of L2/EGFP was too effective at inhibiting tumor growth.

CNS1 glioma cells [7] = test: Growth of CNS1 glioma cells constitutively expressing L2/EGFP (FACS-purified); format: cell-based, rat; conditions: constitutive expression
Excerpt: To examine the role of CLR in glioma proliferation, inhibition of CLR via expression of L2/EGFP was attempted. Although CNS1 cells that constitutively express GFP were generated using published techniques (Evans et al., “CGRP-RCP, A Novel Protein Required for Signal Transduction At Calcitonin Gene-Related Peptide and Adrenomedullin Receptors,” J Biol Chem 275(40):31438-43 (2000); Prado et al., “The Role of the CGRP-Receptor Component Protein (RCP) in Adrenomedullin Receptor Signal Transduction,” Peptides 22(11):1773-81 (2001); Rosenblatt et al., “Endoproteolysis At Tetrabasic Amino Acid Sites in Procalcitonin Gene-Related Peptide by Pituitary Cell Lines,” Peptides 18(4):567-76 (1997), which are hereby incorporated by reference in their entirety), upon transfection of the constitutively expressed L2/EGFP construct, pure fluorescent colonies could not be isolated.

RCP = biological target: T3, RCP (Mus musculus, UniProt O35427); test: Co-immunoprecipitation of RCP with L2/EGFP in NIH3T3 cells; format: binding; conditions: L2/EGFP transfected into NIH3T3 cells, GFP immunoprecipitation, probed with anti-RCP
T3 construct: endogenous in cells; host or cells: NIH3T3
T3 sequence (O35427 whole entry): as above
Excerpt: as §2, §3

CGRP receptor [8] = conditions: oocyte-CFTR assay, Luebke et al. 1996; cited from earlier work

Compound: NCCCC[C@H](NC(=O)[C@@H](Cc1cc(Br)c(O)c(Br)c1)NC(=O)N1CCC(N2Cc3ccccc3NC2=O)CC1)C(=O)N1CCN(c2ccncc2)CC1 [BIB4096, N-((1R)-2-(((1S)-5-amino-1-((4-(pyridin-4-yl)piperazin-1-yl)carbonyl)pentyl)amino)-1-(3,5-dibromo-4-hydroxybenzyl)-2-oxoethyl)-4-(2-oxo-1,4-dihydroquinazolin-3(2H)-yl)piperidine-1-carboxamide]
lower affinity for rodent receptors over human receptors [1]: 100-1000 ×

Compound: FL-CGRP: rat CGRP with a single Alexa488 dye molecule attached to the lysine24 residue
binding to CGRP receptors [4]: high-affinity
FL-CGRP binding to cells ([4]; COS1 cells co-transfected with CLR-cherry and RAMP1, 48 hours post-transfection, 30 nM FL-CGRP): only observed to bind to cells that were expressing CLR-cherry
FL-CGRP binding to cells ([4]; untransfected cells): No FL-CGRP binding was detected

Compound: SEQ ID NO:9: antisense DNA oligonucleotide TGCTCACTGTGTAAGCCTTAAATCCATCAAG (DNA, backbone not given here)
CGRP receptor function (CGRP receptor [8]): inhibit CGRP receptor function

More lines, main results first:

competition with FL-CGRP for binding to immobilized antibody (anti-CGRP antibody JH84): did not compete
Compound: AM: the homologous neuropeptide adrenomedullin

competition with FL-CGRP for binding to immobilized antibody (anti-CGRP antibody JH84): partially competed
Compound: CGRP8-37: peptide CGRP antagonist consisting of residues 8-37 of SEQ ID NO: 2

effect on immunoprecipitation of FL-CGRP by JH84 and MU33 (FL-CGRP): blocked
competition with FL-CGRP for binding to immobilized antibody (anti-CGRP antibody JH84): effectively competed
Compound: CGRP: 37 amino acid neuropeptide derived from calcitonin-related polypeptide alpha; agonist of the CGRP receptor
induction of MDA-MB-231BR breast cancer cells over control [2]: 6 fold
stimulation of glioma growth over control (CNS1 glioma cells [3]; after 4 days in culture): 72 fold
stimulation of glioma growth over control (CNS1 glioma cells [3]; after 5 days in culture): 10 fold
increase of CNS1 cell growth over control (CNS1 glioma cells [3]; normoxic conditions, after 5 days in culture): 11 fold

signaling at the CGRP receptor as measured by cAMP (CGRP receptor [5]): inhibited signaling at the CGRP receptor
co-immunoprecipitation with RCP (RCP): co-immunoprecipitated
Compound: L2/EGFP: fusion protein of the second intracellular loop of CLR and enhanced green fluorescent protein; dominant-negative inhibitor of CLR signaling (LIVVAVFAEKQHLMWYYFLGWGFPLIPACIH; also: fusion protein with EGFP)
growth of pure populations of cells expressing the dominant-negative inhibitor [6]: would not grow
growth of pure populations of cells expressing the dominant-negative inhibitor (CNS1 glioma cells [7]): would not grow
